Experimental data published in PMC2955292 (Chemistry & biology, 2010).
Where “and” joins values, the source holds several entries; their conditions need not be identical. Identical values can stand only once. Entries after “also recorded” stand apart in the source; their conditions may differ. Positions of bridges follow the written chain, without caps; N, C: chain ends. Non-standard residues stand in square brackets, D forms with d. Residues, ends and D or L forms follow the SMILES beside them. *: point of attachment. Octatrienoyl(2E,4E,6E) = C/C=C/C=C/C=C/C(=O)*; Pro(4R-Me) = C[C@H]1CN[C@H](C(=O)O)C1; NMeA = CN[C@@H](C)C(=O)O

What was measured:
ClpP tetradecamer = experiment: Sedimentation velocity, oligomeric state of ClpP; design: species or system Escherichia coli
E. coli ClpP [1] = target: T1, E. coli ClpP (Escherichia coli, UniProt P0A6G7); experiment: Crystal structure of ClpP-ADEP1 complex; type: binding
E. coli ClpP [2] = target: T1, E. coli ClpP; experiment: Peptidase assay, oxidized insulin B chain; type: biochemical; details: 30-residue peptide; pH 8.0, 0.1 M KCl, 37 °C; Supplemental Table 1
[3] = tested on: interaction between ClpP and ClpA; experiment: ClpP-ClpA interaction; type: binding, Escherichia coli; details: Figure S2
ClpP = details: in the presence of ADEP1; ref Brotz-Oesterhelt et al., 2005; cited from earlier work
ClpPin [4] = experiment: Negative stain EM, translocation of β-casein into ClpPin; type: biochemical, Escherichia coli
E. coli ClpP [5] = target: T1, E. coli ClpP; experiment: biochemical
ClpPin [6] = experiment: Negative stain EM, translocation of EGFP-SsrA into ClpPin; type: biochemical, Escherichia coli; details: ADEP1 vs no compound, Figure S3B
E. coli ClpP [7] = target: T1, E. coli ClpP; details: Figure S1A, SDS-PAGE
ClpP N-terminal loop = experiment: Limited proteolysis of ClpP with Staphylococcus aureus protease V8; type: biochemical, Escherichia coli; details: presence vs absence of ADEP1; cleavage at Glu8 and Glu14; Figure S6
E. coli ClpP [8] = target: T1, E. coli ClpP

T1 sequence (P0A6G7 15-207): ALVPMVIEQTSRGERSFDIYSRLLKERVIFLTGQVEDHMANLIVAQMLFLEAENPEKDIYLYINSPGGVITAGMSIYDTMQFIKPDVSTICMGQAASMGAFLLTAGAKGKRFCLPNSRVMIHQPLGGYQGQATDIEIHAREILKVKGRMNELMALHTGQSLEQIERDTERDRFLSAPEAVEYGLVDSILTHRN

With `C/C=C/C=C/C=C/C(=O)N[C@@H](Cc1ccccc1)C(=O)N[C@H]1COC(=O)[C@@H]2C[C@@H](C)CN2C(=O)[C@H](C)NC(=O)[C@H](C)N(C)C(=O)[C@@H]2CCCN2C1=O` [ADEP1] ({Octatrienoyl(2E,4E,6E)}-FSP[NMeA]A[Pro(4R-Me)]; ester 2-C; N-terminus assumed) the “effect on ClpP tetradecamer formation” value (ClpP tetradecamer) was “enhances rather than disrupts tetradecamer formation”, the “conformation of N-terminal loops on ADEP1 binding” value (E. coli ClpP [1]) was “locks the N-terminal loops in an open β-hairpin conformation” and the “rigid-body movement of ClpP monomer on ADEP1 binding” value (E. coli ClpP [1]) was 1.5-2 Å. For the same molecule, the “widening of interface between adjacent ClpP monomers” value (E. coli ClpP [1]) was “about 1 Å”, the “axial pore diameter of ClpP bound to ADEP1” value (E. coli ClpP [1]; 1.9 Å, PDB 3MT6, apo 12 Å or less) was ~ 20 Å and 20 Å and the “binding site and contacts of ADEP1 on ClpP” value (E. coli ClpP [1]; Figure 5B) was “binds in the hydrophobic groove that serves as the primary docking site for ClpP ATPases; also recorded: binds to a hydrophobic pocket on the outer edge of the apical surface of ClpP; also recorded: Tyr62 forms hydrogen bonds with both the phenylalanine and the alanine moieties of the compound; also recorded: the phenylalanine, β-methylproline and alanine moieties, as well as the aliphatic tail in ADEP1 are critical for binding, while the N-methylalanine and proline moieties have minimal interactions with the protein”. The “stoichiometry of ADEP1 binding” value (E. coli ClpP [1]; heptameric ring) was “one molecule of ADEP1 to each one of the seven hydrophobic clefts in the heptameric ring”, the “cleavage of oxidized insulin β chain” value (E. coli ClpP [2]) was “activated cleavage” and the “interaction between ClpP and ClpA” value [3] was “blocked interaction between ClpP and ClpA”. For the same molecule, the “degradation of EGFP-SsrA by ClpP” value (ClpP) was “not degraded”, the “stain penetration into ClpPin without β-casein” value (ClpPin [4]; ADEP1 alone, absence of β-casein, data not shown) was “did not prevent stain penetration into the ClpPin chamber” and the “shift of particle intensity distribution, β-casein translocation” value (ClpPin [4]; ClpPin, ADEP1 vs no compound, Figure S3A) was “significant shift of particles to higher intensity values”. For the same molecule, the EC50 (E. coli ClpP [5]) was 370 nM, the “shift of particle intensity distribution, EGFP-SsrA” value (ClpPin [6]) was “no significant differences” and the “degradation of β-casein compared with ClpA and ATP” value (E. coli ClpP [7]; 37 °C) was “comparable to that observed when ClpA and ATP were present”. The “pattern of β-casein degradation products (processivity)” value (E. coli ClpP [7]) was “generated numerous partially degraded products”, the “limited proteolysis of ClpP by V8 protease” value (ClpP N-terminal loop) was “significantly slower” and the “activation of F-V cleavage compared with ClpA” value (E. coli ClpP [8]; F-V 1 mM, ClpP 1 μg/ml, 10 μM ADEP1 vs ClpA 10 μg/ml with 1 mM ATPγS, 37 °C, pH 8.0) was “comparable to the allosteric activation seen with ClpA”. The “activity of ClpP alone relative to activity with ADEP1 present” value (E. coli ClpP [8]; F-V cleavage, 10 μM ADEP1, average of two separate experiments) was ~ 2%.
